Structures are written as SMILES.

The target of series [1] is T1, mouse MOR (Mus musculus, UniProt P42866). Description: Competitive radioligand binding assay, MOR.
A further series concerns the target mouse KOR (Mus musculus, UniProt P33534). Description: Competitive radioligand binding assay, KOR.
Another series deals with mouse DOR (Mus musculus, UniProt P32300). In words: Competitive radioligand binding assay, DOR.
Series [2] deals with T1, mouse MOR. In words: [35S]-GTPγS functional assay, MOR-CHO membranes. Particulars: for Emax: read-out: MOR [35S]-GTPγS assay % Emax of DAMGO, relative to 3 μM DAMGO; for MOR [35S]-GTPγS assay % Emax of DAMGO: relative to 3 μM DAMGO.
Series [3] relates to male Swiss Webster mice. Description: Warm-water tail immersion assay, antinociceptive effect. The note with it: 10 mg/kg s.c., tested 20 min after injection, 56 °C water.
Series [4] deals with KOR-DOR and KOR-MOR heterodimers. Particulars: HEK293 cells; cited from earlier work.
For series [5] the following is noted: cited from earlier work.
In series [6] the test system is male Swiss Webster mice. In words: Warm-water tail immersion assay, antagonism of morphine's antinociceptive effect. The note with it: dose-response study, s.c.

As usually defined, the Ki is the dissociation constant of the complex between target and ligand, obtained from inhibition or displacement. Read a low Ki as tighter binding. Usually EC50 stands for the concentration giving half of the maximal effect. Usually Emax stands for the greatest response seen or fitted, relative to the assay's reference. Turning to `O=C(CCc1c[nH]c2ccccc12)N[C@H]1CC[C@@]2(O)[C@H]3Cc4ccc(O)c5c4[C@@]2(CCN3CC2CC2)[C@H]1O5` [Compound 17, 17-Cyclopropylmethyl-3,14β-dihydroxy-4,5α-epoxy-6α-[3-(indol-3-yl)propanamido)morphinan], the Ki on mouse MOR [1] was determined as 0.44 ± 0.04 nM; on mouse KOR, 1.36 ± 0.18 nM; on mouse DOR, 25.1 ± 6.83 nM. The compound also showed an EC50 on mouse MOR [2] of 2.09 ± 0.19 nM. The maximum response (Emax) at mouse MOR [2] worked out at 41.5 ± 6.14%.

`O=C(N[C@H]1CC[C@@]2(O)[C@H]3Cc4ccc(O)c5c4[C@@]2(CCN3CC2CC2)[C@H]1O5)c1ccc2[nH]ccc2c1` [Compound 13, 17-Cyclopropylmethyl-3,14β-dihydroxy-4,5α-epoxy-6α-(indole-5-carboxamido)morphinan]: the Ki at mouse MOR [1] worked out at 0.76 ± 0.11 nM; at mouse KOR, 3.45 ± 0.99 nM; on mouse DOR, 26.7 ± 7.72 nM. Moreover, the EC50 on mouse MOR [2] is 1.55 ± 0.08 nM. At mouse MOR [2], the maximal effect (Emax) is 32.2 ± 1.26%.

With `O=C(N[C@@H]1CC[C@@]2(O)[C@H]3Cc4ccc(O)c5c4[C@@]2(CCN3CC2CC2)[C@H]1O5)c1c[nH]c2ccccc12` [Compound 2, 17-Cyclopropylmethyl-3,14β-dihydroxy-4,5α-epoxy-6β-(indole-3-carboxamido)morphinan], the “Antinociceptive effect (% MPE)” value with male Swiss Webster mice [3] is “low % MPE values”. Further, the inhibition constant Ki on mouse MOR [1] turned out to be 0.19 ± 0.02 nM. The compound further displayed an inhibition constant (Ki) on mouse DOR of 7.17 ± 1.23 nM. Moreover, at mouse MOR [2], the EC50 was 0.22 ± 0.07 nM, the Emax stood at 79.5 ± 7.41% and the “MOR [35S]-GTPγS assay % Emax of DAMGO” value was “high MOR efficacies”.

For `O=C(N[C@@H]1CC[C@@]2(O)[C@H]3Cc4ccc(O)c5c4[C@@]2(CCN3CC2CC2)[C@H]1O5)c1cccc2cc[nH]c12` [Compound 6, 17-Cyclopropylmethyl-3,14β-dihydroxy-4,5α-epoxy-6β-(indole-7-carboxamido)morphinan], the figures for the Ki on mouse KOR and at mouse DOR were 0.52 ± 0.09 nM and 30.4 ± 9.49 nM, respectively. In addition, the “MOR [35S]-GTPγS assay % Emax of DAMGO” value at mouse MOR [2] came to 37.94 ±5.85%.

In the case of `O=C(CCc1c[nH]c2ccccc12)N[C@@H]1CC[C@@]2(O)[C@H]3Cc4ccc(O)c5c4[C@@]2(CCN3CC2CC2)[C@H]1O5` [Compound 8, 17-Cyclopropylmethyl-3,14β-dihydroxy-4,5α-epoxy-6β-[3-(indol-3-yl)propanamido)morphinan], the figures for the inhibition constant (Ki) on mouse MOR [1], at mouse KOR and on mouse DOR were 0.17 ± 0.01 nM, 0.39 ± 0.05 nM and 77.1 ± 28.3 nM, respectively. Further, at mouse MOR [2], it took 1.73 ± 1.1 nM to reach a half-maximal effect (EC50). The Emax at mouse MOR [2] is 45.1 ± 5.18%.

For the compound `O=C(N[C@@H]1CC[C@@]2(O)[C@H]3Cc4ccc(O)c5c4[C@@]2(CCN3CC2CC2)[C@H]1O5)c1cc2ccccc2[nH]1` [Compound 1, 17-Cyclopropylmethyl-3,14β-dihydroxy-4,5α-epoxy-6β-(indole-2-carboxamido)morphinan], the “Antinociceptive effect (% MPE)” value with male Swiss Webster mice [3] (listed as INTA) was “potent antinociception”. Further, the “Activation of KOR-DOR and KOR-MOR heterodimers” value in series [4] is “activated”. This compound also yielded an inhibition constant Ki at mouse MOR [1] of 0.29 ± 0.04 nM. On mouse KOR, this compound came in with a Ki of 0.18 nM. On mouse DOR, this compound came in with a Ki of 1.54 ± 0.47 nM. Also, in series [5], the Antinociception entry is “potent antinociception”; the “Aversive effects in the conditioned place preference assay” value is listed as “no aversive effects”; the Tolerance and dependence result was “devoid of tolerance and dependence”. Moreover, on mouse MOR [2], the EC50 was determined as 0.21 ± 0.01 nM, the Emax worked out at 92.4 ± 2.81% and the “MOR [35S]-GTPγS assay % Emax of DAMGO” value is “full agonist”. Also, at mouse MOR [2] (mMOR-CHO membranes), the “MOR [35S]-GTPγS assay EC50” value is listed as “subnanomolar potency”.

`O=C(CCCc1c[nH]c2ccccc12)N[C@H]1CC[C@@]2(O)[C@H]3Cc4ccc(O)c5c4[C@@]2(CCN3CC2CC2)[C@H]1O5` [Compound 18, 17-Cyclopropylmethyl-3,14β-dihydroxy-4,5α-epoxy-6α-[4-(indol-3-yl)butanamido)morphinan]: the Ki worked out at 0.29 ± 0.04 nM on mouse MOR [1], 0.15 ± 0.03 nM at mouse KOR and 6.73 ± 0.4 nM at mouse DOR. At mouse MOR [2], this compound came in with a half-maximal effective concentration (EC50) of 1.89 ± 1.04 nM. The Emax on mouse MOR [2] was determined as 54.9 ± 6.35%.

Consider `O=C(Cc1c[nH]c2ccccc12)N[C@H]1CC[C@@]2(O)[C@H]3Cc4ccc(O)c5c4[C@@]2(CCN3CC2CC2)[C@H]1O5` [Compound 16, 17-Cyclopropylmethyl-3,14β-dihydroxy-4,5α-epoxy-6α-[2-(indol-3-yl)acetamido)morphinan], for which the inhibition constant (Ki) on mouse MOR [1] is 0.84 ± 0.12 nM; on mouse KOR it was 3.14 ± 0.45 nM; at mouse DOR, 9.17 ± 2.67 nM. In addition, the EC50 at mouse MOR [2] stood at 4.75 ± 0.31 nM. Also, the Emax at mouse MOR [2] was 34.1 ± 0.97%.

Consider `O=C(N[C@H]1CC[C@@]2(O)[C@H]3Cc4ccc(O)c5c4[C@@]2(CCN3CC2CC2)[C@H]1O5)c1cccc2[nH]ccc12` [Compound 12, 17-Cyclopropylmethyl-3,14β-dihydroxy-4,5α-epoxy-6α-(indole-4-carboxamido)morphinan], for which the inhibitory constant (Ki) worked out at 0.26 ± 0.04 nM at mouse MOR [1] and 9.26 ± 2.83 nM on mouse DOR. Moreover, the concentration for a half-maximal effect (EC50) on mouse MOR [2] is 4.99 ± 2.19 nM. The “MOR [35S]-GTPγS assay % Emax of DAMGO” value at mouse MOR [2] amounted to 28.90 ±0.95%.

Take `O=C(N[C@H]1CC[C@@]2(O)[C@H]3Cc4ccc(O)c5c4[C@@]2(CCN3CC2CC2)[C@H]1O5)c1c[nH]c2ccccc12` [Compound 11, 17-Cyclopropylmethyl-3,14β-dihydroxy-4,5α-epoxy-6α-(indole-3-carboxamido)morphinan]: the inhibition constant Ki on mouse MOR [1] came to 0.29 ± 0.04 nM; on mouse KOR it was 0.98 ± 0.13 nM; at mouse DOR, 10.5 ± 2.89 nM. Further, on mouse MOR [2], a half-maximal response (EC50) required 1 ± 0.13 nM. The Emax on mouse MOR [2] amounted to 33.3 ± 3.51%.

With `O=C(N[C@@H]1CC[C@@]2(O)[C@H]3Cc4ccc(O)c5c4[C@@]2(CCN3CC2CC2)[C@H]1O5)c1ccc2cc[nH]c2c1` [Compound 5, 17-Cyclopropylmethyl-3,14β-dihydroxy-4,5α-epoxy-6β-(indole-6-carboxamido)morphinan], the “Antinociceptive effect (% MPE)” value in the series on male Swiss Webster mice [3] was “low % MPE values”. The Ki at mouse MOR [1] was found to be 0.25 ± 0.04 nM; at mouse KOR, 0.17 ± 0.01 nM; on mouse DOR, 6.23 ± 0.83 nM. This compound displayed a half-maximal effective concentration (EC50) on mouse MOR [2] of 0.19 ± 0.02 nM. Further, at mouse MOR [2], the Emax came out at 71.8 ± 4.37%. In addition, the “MOR [35S]-GTPγS assay % Emax of DAMGO” value at mouse MOR [2] is given as “high MOR efficacies”.

On to `O=C(N[C@H]1CC[C@@]2(O)[C@H]3Cc4ccc(O)c5c4[C@@]2(CCN3CC2CC2)[C@H]1O5)c1ccc2cc[nH]c2c1` [Compound 14, 17-Cyclopropylmethyl-3,14β-dihydroxy-4,5α-epoxy-6α-(indole-6-carboxamido)morphinan], for which the inhibition constant Ki at mouse MOR [1] was found to be 0.43 ± 0.05 nM; at mouse KOR, 1.63 ± 0.28 nM; at mouse DOR, 12.8 ± 3.36 nM. The EC50 on mouse MOR [2] turned out to be 6.06 ± 1.25 nM. Also, the Emax at mouse MOR [2] was 26.6 ± 0.66%.

Compound `O=C(CCCc1c[nH]c2ccccc12)N[C@@H]1CC[C@@]2(O)[C@H]3Cc4ccc(O)c5c4[C@@]2(CCN3CC2CC2)[C@H]1O5` [Compound 9, 17-Cyclopropylmethyl-3,14β-dihydroxy-4,5α-epoxy-6β-[4-(indol-3-yl)butanamido)morphinan] had a Ki at mouse MOR [1] of 0.2 ± 0.03 nM. On mouse DOR, this compound displayed a Ki of 25.3 ± 4.34 nM. Besides, on mouse MOR [2], the EC50 was found to be 1.04 ± 0.17 nM and the “MOR [35S]-GTPγS assay % Emax of DAMGO” value worked out at 36.29 ±4.11%.

For the compound `O=C(Cc1c[nH]c2ccccc12)N[C@@H]1CC[C@@]2(O)[C@H]3Cc4ccc(O)c5c4[C@@]2(CCN3CC2CC2)[C@H]1O5` [Compound 7, 17-Cyclopropylmethyl-3,14β-dihydroxy-4,5α-epoxy-6β-[2-(indol-3-yl)acetamido)morphinan], the Ki at mouse MOR [1] is 0.24 ± 0.03 nM. The compound also yielded a Ki at mouse DOR of 37 ± 1.21 nM. Moreover, at mouse MOR [2], a half-maximal effect (EC50) was put at 1.44 ± 0.75 nM and the Emax is 48.3 ± 4.45%.

In the case of `O=C(N[C@H]1CC[C@@]2(O)[C@H]3Cc4ccc(O)c5c4[C@@]2(CCN3CC2CC2)[C@H]1O5)c1cc2ccccc2[nH]1` [Compound 10, 17-Cyclopropylmethyl-3,14β-dihydroxy-4,5α-epoxy-6α-(indole-2-carboxamido)morphinan], the Ki stood at 0.36 ± 0.03 nM at mouse MOR [1], 0.93 ± 0.13 nM on mouse KOR and 14.2 ± 2.78 nM at mouse DOR. The same compound returned a concentration giving a half-maximal response (EC50) at mouse MOR [2] of 6.75 ± 3.2 nM. Further, the Emax at mouse MOR [2] turned out to be 36.9 ± 2.4%.

For `O=C(N[C@@H]1CC[C@@]2(O)[C@H]3Cc4ccc(O)c5c4[C@@]2(CCN3CC2CC2)[C@H]1O5)c1ccc2[nH]ccc2c1` [Compound 4, 17-Cyclopropylmethyl-3,14β-dihydroxy-4,5α-epoxy-6β-(indole-5-carboxamido)morphinan], the Ki on mouse MOR [1] came to 0.26 ± 0.04 nM; at mouse KOR it was 0.51 ± 0.04 nM; at mouse DOR it was 17.7 ± 4.78 nM. Besides, the EC50 on mouse MOR [2] is 2.98 ± 1.25 nM. For the same compound, the Emax on mouse MOR [2] is 22.3 ± 3.5%.

Consider `O=C(N[C@H]1CC[C@@]2(O)[C@H]3Cc4ccc(O)c5c4[C@@]2(CCN3CC2CC2)[C@H]1O5)c1cccc2cc[nH]c12` [Compound 15, 17-Cyclopropylmethyl-3,14β-dihydroxy-4,5α-epoxy-6α-(indole-7-carboxamido)morphinan], for which the “AD50 (95% CL), opioid antagonist effect against morphine” value with male Swiss Webster mice [6] is recorded as 2.07 (0.40−10.74) mg/kg.

With `O=C(N[C@@H]1CC[C@@]2(O)[C@H]3Cc4ccc(O)c5c4[C@@]2(CCN3CC2CC2)[C@H]1O5)c1cccc2[nH]ccc12` [Compound 3, 17-Cyclopropylmethyl-3,14β-dihydroxy-4,5α-epoxy-6β-(indole-4-carboxamido)morphinan], the values for the inhibition constant (Ki) at mouse MOR [1] and on mouse DOR were 0.24 ± 0.03 nM and 49.8 ± 12.7 nM, respectively. At mouse MOR [2], this compound displayed an EC50 of 8.16 ± 4.72 nM.

These data come from publication PMC6405326 (ACS chemical neuroscience, 2018).
